Key:
Plasma ACE1 = target: T1, Plasma ACE1 (Mus musculus, UniProt P09470); test: SELDI-TOF-MS assay of ACE activity in plasma (Ang I substrate, Ang II product); assay type: biochemical; conditions: data not shown
T1 construct: Plasma ACE1 converted Ang I (Ang 1-10; 1296.5 m/z) to Ang II; from tissue; host or cells: mouse plasma (crude, 0.5 µl)
T1 sequence (P09470 35-1237 limits assumed): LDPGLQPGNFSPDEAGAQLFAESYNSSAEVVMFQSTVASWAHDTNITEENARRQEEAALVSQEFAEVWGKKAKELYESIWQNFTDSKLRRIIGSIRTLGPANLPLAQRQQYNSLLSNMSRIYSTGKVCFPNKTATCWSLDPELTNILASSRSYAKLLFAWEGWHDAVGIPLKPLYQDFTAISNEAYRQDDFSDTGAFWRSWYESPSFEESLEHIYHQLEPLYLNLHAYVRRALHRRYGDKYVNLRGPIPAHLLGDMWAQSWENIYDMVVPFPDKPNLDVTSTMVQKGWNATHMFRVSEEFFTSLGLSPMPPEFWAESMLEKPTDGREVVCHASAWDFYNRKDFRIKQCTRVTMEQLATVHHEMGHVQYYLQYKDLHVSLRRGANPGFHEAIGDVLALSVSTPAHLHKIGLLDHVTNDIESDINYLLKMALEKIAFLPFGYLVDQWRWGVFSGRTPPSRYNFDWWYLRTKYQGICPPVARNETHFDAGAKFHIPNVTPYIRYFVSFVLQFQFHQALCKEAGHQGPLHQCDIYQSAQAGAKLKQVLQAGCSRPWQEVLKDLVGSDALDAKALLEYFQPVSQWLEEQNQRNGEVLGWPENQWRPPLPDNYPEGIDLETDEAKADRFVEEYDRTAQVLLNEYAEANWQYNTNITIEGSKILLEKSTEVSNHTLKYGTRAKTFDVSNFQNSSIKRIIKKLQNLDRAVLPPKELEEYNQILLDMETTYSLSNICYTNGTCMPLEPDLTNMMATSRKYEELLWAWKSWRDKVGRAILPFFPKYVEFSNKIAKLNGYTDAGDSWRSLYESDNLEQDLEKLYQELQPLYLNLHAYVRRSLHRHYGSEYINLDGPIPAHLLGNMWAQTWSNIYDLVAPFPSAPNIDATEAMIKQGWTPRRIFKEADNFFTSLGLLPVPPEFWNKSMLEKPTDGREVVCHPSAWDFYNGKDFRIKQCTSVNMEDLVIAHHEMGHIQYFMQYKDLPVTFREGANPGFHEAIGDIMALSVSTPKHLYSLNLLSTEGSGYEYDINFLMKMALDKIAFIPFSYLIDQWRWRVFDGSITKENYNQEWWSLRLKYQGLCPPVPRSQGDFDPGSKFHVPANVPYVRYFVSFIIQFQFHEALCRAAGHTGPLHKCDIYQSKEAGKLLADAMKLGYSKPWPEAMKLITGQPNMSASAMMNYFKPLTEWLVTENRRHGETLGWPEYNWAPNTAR

renin = target: T2, renin (Mus musculus, UniProt P06281); test: SELDI-TOF-MS assay of renin activity in plasma (AGT substrate; sequential renin and ACE1); assay type: biochemical; conditions: AGT + plasma + captopril (10 μM); FIG. 1F
T2 construct: Plasma incubated with AGT (1759, m/z) results in peptides with m/z that matched Ang 1 and Ang II; from tissue; host or cells: mouse plasma (crude, 0.5 µl)
T2 sequence (P06281 72-402): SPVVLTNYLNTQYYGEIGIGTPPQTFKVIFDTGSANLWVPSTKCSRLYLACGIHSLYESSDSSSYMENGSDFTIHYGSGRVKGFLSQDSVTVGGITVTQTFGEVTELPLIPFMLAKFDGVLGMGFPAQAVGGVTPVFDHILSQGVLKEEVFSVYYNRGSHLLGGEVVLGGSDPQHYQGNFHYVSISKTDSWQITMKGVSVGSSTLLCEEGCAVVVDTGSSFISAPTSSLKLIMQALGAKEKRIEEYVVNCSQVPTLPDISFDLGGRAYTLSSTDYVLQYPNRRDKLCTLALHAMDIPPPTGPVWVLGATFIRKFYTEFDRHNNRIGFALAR
Experimental: For measurement of enzyme activities, substrates (Ang II or AGT) were incubated with plasma or tissue extracts and the peptide products were measured using SELDI-TOF MS. For ACE activity, plasma (0.5-2.5 μl) or tissue extracts (1 μg protein) were incubated in 50 μl MES buffer (50 mM, pH 6.7) containing 2 mM PMSF and varying concentrations of Ang I(0.1-10 μM) at 37° C. One μl of the reaction mixture was spotted onto ProteinChip arrays and analyzed as previously described in Cool, D. R. & Hardiman, A., “C-Terminal sequencing of peptide hormones using carboxypeptidase Y and SELDI-TOF mass spectrometry” Biotechniques 36, 32-34 (2004), incorporated herein by reference. […]. […]

With `c1cnc2c(c1)ccc1cccnc12` [1, 10 phenanthroline] the “ACE activity (conversion of Ang I to Ang II)” value (Plasma ACE1; 0.44 mM 1, 10 phenanthroline) was “blocked”.
In the case of `C[C@H](CS)C(=O)N1CCC[C@H]1C(=O)O` [captopril], the “effect on renin activity” value (renin) is reported as “no effect”.
With `O=C(O)CN(CCN(CC(=O)O)CC(=O)O)CC(=O)O` [EDTA] the “ACE activity (conversion of Ang I to Ang II)” value (Plasma ACE1; 10 mM EDTA) was “blocked”.

From patent US7332296B2, “Screening assay for enzymes involved in pathophysiology using SELDI-TOF mass spectrometry” (Wright State University, priority 2004, dated 2008)
